Assays:
[1] = target: T1, human Cereblon WT GST-tagged protein (Homo sapiens, UniProt Q96SW2); assay: CRBN-binding affinity, HTRF (CEREBLON BINDING kit); conditions: for inhibition at 0.5 µM: read-out: Inhibition Rate at 0.5 µM (%); for inhibition at 2 µM: read-out: Inhibition Rate at 2 µM (%)
T1 construct: purchased CISBIO 64BDCRBNPEH

[2] = system: Human acute T lymphocytic leukemia cell (Molt4); assay: Tumor cell proliferation inhibition (CellTiter-Meiluncell luminescent cell viability assay); conditions: MOLT-4, 96 h; for inhibition at 0.01 µM: read-out: Inhibition Rate at 10 nM (%); for inhibition at 0.5 µM: read-out: Inhibition Rate at 500 nM (%)
CK1α = target: T2, CK1α (Homo sapiens, UniProt P48729+Q96SW2); assay: Western blot, degradation of substrate protein in hPBMCs; format: cell-based
T2 construct: effects of the compounds of the present disclosure on the expression of target proteins in cells; endogenous in cells; host or cells: human PBMCs (Milecell Biotechnologies)

IKZF3 = target: T3, IKZF3 (Homo sapiens, UniProt Q96SW2+Q9UKT9); assay: as above; format: cell-based
T3 construct: effects of the compounds of the present disclosure on the expression of target proteins in cells; endogenous in cells; host or cells: human PBMCs (Milecell Biotechnologies)

IKZF1 = target: T4, IKZF1 (Homo sapiens, UniProt Q13422+Q96SW2); assay: as above; format: cell-based
T4 construct: effects of the compounds of the present disclosure on the expression of target proteins in cells; endogenous in cells; host or cells: human PBMCs (Milecell Biotechnologies)

IKZF2 = target: T5, IKZF2 (Homo sapiens, UniProt Q96SW2+Q9UKS7); assay: as above; format: cell-based
T5 construct: effects of the compounds of the present disclosure on the expression of target proteins in cells; endogenous in cells; host or cells: human PBMCs (Milecell Biotechnologies)

WEE1 = target: T6, WEE1 (Homo sapiens, UniProt P30291+Q96SW2); assay: as above; format: cell-based
T6 construct: effects of the compounds of the present disclosure on the expression of target proteins in cells; endogenous in cells; host or cells: human PBMCs (Milecell Biotechnologies)

GSPT1 = assay: as above; format: cell-based, Human
[3] = system: Human multiple myeloma cell (MM.1S); assay: Tumor cell proliferation inhibition (CellTiter-Meiluncell luminescent cell viability assay); conditions: for inhibition at 0.01 µM / inhibition at 0.5 µM: Homo sapiens, MM1.S, 96 h; for inhibition at 0.01 µM: read-out: Inhibition Rate at 10 nM (%); for inhibition at 0.5 µM: read-out: Inhibition Rate at 500 nM (%)
[4] = system: Human myeloid monocytic leukemia cell (MV-4-11); assay: as above; conditions: MV4-11, 96 h; for inhibition at 0.01 µM: read-out: Inhibition Rate at 10 nM (%); for inhibition at 0.5 µM: read-out: Inhibition Rate at 500 nM (%)
Procedure: The tumor cells used herein were cultured in a cell culture medium listed in table 2 at 37°C in an incubator with 5% CO2. Prior to experimentation, all cell lines used were correctly identified by STR profiling, and tested negative for mycoplasma contamination using a mycoplasma detection kit through routine screenings.
The IC50 values of the compounds of the present disclosure (including the compounds in Table 1 and Examples) were determined using the CellTiter-Meiluncell Luminescent Cell Viability Assay Kit from Dalian Meilun Biotech Co., Ltd. The detailed procedure is as follows: Tumor cells were seeded in 96-well cell culture plates at the densities specified in Table 3. On the following day, the test compounds of the present disclosure were subjected to serial dilution. The dilution can be performed according to one of the following two methods: • (1) The first dilution method: The test compounds of the present disclosure (including the compounds in Table 1 and Examples) were subjected to 5-fold serial dilutions starting from a highest concentration of 2000 µM, resulting in a total of 9 concentrations from high to low (2000, 400, 80, 16, 3.2, 0.64, 0.128, 0.0256, 0.00512 µM). Subsequently, 0.5 µL of the test compound dilution was transferred into the 96-well plate containing the cells, with each well containing 100 µL of cell culture medium. […] Into the 96-well plate, the diluted test compounds and corresponding detection reagents were added, resulting in final test compound concentrations of 500 nM and 10 nM, respectively. The experimental procedure is described below using the diluted 2 µM test compound as an example.
0.5 µL of the aforementioned diluted compound of the present disclosure (including the compounds in Table 1 and Examples) was added to the seeded cells in 100 µL of medium, yielding a final test compound concentration of 10 nM. After the cells were treated with the compounds of the present disclosure for a specified period, the cell viability assay reagent was added to the culture medium according to the kit's instructions to determine cell viability. […] All controls were treated using the same procedure as the compounds of the present disclosure. The growth inhibition curves for the compounds of the present disclosure were plotted using Prism GraphPad software, and the IC50 values were calculated therefrom.

[5] = 24 hours treatment, compounds at 50 nM and 500 nM (concentration behind the class not stated)
[6] = Western blot, 24 hours of compound treatment, compounds tested at 50 nM and 500 nM (concentration for the table not stated)

T6 sequence (P30291 whole entry): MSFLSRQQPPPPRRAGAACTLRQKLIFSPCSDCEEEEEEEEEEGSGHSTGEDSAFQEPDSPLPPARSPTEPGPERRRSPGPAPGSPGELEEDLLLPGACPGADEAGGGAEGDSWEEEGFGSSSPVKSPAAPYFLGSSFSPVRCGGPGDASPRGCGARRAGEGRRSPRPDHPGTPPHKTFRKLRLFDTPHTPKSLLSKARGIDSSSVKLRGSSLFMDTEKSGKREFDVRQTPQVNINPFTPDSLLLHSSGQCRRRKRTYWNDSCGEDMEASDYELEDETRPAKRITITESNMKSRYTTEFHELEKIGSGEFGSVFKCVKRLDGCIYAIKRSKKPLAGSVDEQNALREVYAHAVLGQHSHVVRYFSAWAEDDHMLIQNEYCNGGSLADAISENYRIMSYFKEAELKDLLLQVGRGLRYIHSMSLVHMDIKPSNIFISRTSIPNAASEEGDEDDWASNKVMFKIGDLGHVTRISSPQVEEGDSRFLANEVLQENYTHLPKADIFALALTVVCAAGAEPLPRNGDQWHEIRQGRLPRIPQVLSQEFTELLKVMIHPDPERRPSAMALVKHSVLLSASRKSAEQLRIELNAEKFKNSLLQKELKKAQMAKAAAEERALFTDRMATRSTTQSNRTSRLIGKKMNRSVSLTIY
T6 sequence (Q96SW2 whole entry): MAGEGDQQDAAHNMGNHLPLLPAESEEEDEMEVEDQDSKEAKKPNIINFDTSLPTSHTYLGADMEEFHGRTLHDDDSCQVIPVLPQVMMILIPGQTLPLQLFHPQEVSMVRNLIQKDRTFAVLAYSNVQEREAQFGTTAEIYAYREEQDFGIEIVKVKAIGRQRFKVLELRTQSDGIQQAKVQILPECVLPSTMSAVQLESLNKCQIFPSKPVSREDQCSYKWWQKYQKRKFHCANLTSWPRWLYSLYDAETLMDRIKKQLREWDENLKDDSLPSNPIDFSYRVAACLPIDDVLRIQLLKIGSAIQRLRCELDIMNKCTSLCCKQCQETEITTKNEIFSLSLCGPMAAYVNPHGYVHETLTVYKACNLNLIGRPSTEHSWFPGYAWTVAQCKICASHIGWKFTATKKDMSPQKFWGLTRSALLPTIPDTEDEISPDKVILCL
T6 sequence (Q16531 whole entry partner): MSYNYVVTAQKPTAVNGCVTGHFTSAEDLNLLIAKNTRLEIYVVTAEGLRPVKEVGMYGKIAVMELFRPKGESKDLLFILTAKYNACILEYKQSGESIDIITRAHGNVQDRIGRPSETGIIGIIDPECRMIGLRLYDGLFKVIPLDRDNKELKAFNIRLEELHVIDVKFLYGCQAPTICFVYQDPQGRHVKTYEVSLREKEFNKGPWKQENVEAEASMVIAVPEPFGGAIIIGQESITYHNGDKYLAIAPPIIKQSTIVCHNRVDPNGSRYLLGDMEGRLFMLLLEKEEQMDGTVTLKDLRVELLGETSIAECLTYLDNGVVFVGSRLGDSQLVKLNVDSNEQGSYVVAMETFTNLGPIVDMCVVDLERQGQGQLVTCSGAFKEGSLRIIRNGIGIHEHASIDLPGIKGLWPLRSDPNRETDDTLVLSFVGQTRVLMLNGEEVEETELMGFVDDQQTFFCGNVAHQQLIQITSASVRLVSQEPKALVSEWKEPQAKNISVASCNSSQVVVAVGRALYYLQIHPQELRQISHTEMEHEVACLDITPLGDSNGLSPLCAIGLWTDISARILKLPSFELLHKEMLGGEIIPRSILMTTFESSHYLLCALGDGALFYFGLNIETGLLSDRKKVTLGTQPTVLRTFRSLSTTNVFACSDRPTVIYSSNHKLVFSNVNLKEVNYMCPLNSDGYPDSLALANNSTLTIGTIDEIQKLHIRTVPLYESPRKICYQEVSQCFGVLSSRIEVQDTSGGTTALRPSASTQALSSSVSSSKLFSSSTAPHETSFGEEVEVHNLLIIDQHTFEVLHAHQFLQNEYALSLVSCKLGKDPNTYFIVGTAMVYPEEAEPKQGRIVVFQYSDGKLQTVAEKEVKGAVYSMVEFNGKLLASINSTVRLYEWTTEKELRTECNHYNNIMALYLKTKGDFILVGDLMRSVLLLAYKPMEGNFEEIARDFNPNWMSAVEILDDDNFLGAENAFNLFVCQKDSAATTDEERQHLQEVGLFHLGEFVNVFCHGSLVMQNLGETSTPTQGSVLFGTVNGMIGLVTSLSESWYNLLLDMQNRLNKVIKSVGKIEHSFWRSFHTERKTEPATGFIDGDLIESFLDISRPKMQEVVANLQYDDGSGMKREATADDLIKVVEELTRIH
T2 sequence (P48729 whole entry): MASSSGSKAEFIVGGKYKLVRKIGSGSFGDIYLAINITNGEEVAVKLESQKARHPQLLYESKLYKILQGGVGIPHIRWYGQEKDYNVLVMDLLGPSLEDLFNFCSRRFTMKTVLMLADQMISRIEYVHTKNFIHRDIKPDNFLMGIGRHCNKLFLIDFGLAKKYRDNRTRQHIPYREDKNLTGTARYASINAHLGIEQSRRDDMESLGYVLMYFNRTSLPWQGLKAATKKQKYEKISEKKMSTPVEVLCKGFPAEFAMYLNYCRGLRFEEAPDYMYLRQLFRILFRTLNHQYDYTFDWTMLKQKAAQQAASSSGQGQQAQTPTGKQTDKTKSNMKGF
T2 sequence (Q96SW2 whole entry): as the sequence (Q96SW2 whole entry) above
T2 sequence (Q16531 whole entry partner): as the sequence (Q16531 whole entry partner) above
T3 sequence (Q9UKT9 whole entry): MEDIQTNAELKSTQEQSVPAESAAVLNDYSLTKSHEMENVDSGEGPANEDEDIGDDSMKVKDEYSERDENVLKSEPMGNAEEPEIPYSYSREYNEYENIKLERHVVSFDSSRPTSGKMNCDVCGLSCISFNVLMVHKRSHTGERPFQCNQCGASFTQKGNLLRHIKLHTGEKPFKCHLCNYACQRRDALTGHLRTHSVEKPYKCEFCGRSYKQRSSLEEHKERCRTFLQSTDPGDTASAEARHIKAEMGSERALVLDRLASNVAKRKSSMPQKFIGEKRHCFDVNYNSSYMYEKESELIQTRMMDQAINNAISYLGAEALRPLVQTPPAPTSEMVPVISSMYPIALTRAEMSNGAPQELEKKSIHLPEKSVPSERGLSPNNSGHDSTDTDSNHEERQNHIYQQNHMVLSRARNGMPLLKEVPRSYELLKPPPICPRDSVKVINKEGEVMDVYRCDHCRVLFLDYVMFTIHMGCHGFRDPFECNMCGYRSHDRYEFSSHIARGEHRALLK
T3 sequence (Q96SW2 whole entry): as the sequence (Q96SW2 whole entry) above
T3 sequence (Q16531 whole entry partner): as the sequence (Q16531 whole entry partner) above
T4 sequence (Q13422 whole entry): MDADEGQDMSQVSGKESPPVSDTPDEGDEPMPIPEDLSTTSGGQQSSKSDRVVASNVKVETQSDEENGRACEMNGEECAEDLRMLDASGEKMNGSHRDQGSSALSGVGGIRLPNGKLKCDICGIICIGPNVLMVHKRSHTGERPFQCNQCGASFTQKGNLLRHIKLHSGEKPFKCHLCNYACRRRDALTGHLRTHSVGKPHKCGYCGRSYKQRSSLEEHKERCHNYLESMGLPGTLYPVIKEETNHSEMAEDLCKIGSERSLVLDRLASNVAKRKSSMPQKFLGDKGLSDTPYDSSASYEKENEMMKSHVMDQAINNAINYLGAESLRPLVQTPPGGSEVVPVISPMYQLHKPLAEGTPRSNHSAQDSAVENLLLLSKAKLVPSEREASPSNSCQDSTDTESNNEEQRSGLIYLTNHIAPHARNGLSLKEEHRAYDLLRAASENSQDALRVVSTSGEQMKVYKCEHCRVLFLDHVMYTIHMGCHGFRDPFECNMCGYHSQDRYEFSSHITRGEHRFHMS
T4 sequence (Q96SW2 whole entry): as the sequence (Q96SW2 whole entry) above
T4 sequence (Q16531 whole entry partner): as the sequence (Q16531 whole entry partner) above
T1 sequence (Q96SW2 whole entry): as the sequence (Q96SW2 whole entry) above
T5 sequence (Q9UKS7 whole entry): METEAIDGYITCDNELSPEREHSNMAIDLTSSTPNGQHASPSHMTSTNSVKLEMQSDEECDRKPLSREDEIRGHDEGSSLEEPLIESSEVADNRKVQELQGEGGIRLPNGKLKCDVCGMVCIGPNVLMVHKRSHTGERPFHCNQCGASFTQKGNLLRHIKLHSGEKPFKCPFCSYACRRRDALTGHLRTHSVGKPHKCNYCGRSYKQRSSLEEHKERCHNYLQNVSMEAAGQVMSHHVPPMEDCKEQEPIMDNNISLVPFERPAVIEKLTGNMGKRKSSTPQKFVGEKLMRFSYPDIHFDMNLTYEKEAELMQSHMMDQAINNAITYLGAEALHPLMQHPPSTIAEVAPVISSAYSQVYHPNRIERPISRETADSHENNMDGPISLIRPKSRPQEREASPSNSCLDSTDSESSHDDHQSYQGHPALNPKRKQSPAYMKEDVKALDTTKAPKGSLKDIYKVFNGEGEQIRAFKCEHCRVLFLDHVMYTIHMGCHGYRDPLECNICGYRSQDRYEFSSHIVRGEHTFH
T5 sequence (Q96SW2 whole entry): as the sequence (Q96SW2 whole entry) above
T5 sequence (Q16531 whole entry partner): as the sequence (Q16531 whole entry partner) above

inhibition at 0.5 µM [1]	inhibition at 2 µM [1]	SMILES	CK1α substrate protein remaining % (CK1α; [5])	IKZF3 substrate protein remaining % (IKZF3; [5])	IKZF 1 substrate protein remaining % (IKZF1; [5])	IKZF2 substrate protein remaining % (IKZF2; [5])	Wee1 substrate protein remaining % (WEE1; [5])	GSPT1 substrate protein remaining % (GSPT1; [5])	CK1α substrate protein remaining % (CK1α; [6])	IKZF3 substrate protein remaining % (IKZF3; [6])	IKZF 1 substrate protein remaining % (IKZF1; [6])	IKZF2 substrate protein remaining % (IKZF2; [6])	Wee1 substrate protein remaining % (WEE1; [6])	GSPT1 substrate protein remaining % (GSPT1; [6])	inhibition at 0.01 µM [3]	inhibition at 0.5 µM [3]	inhibition at 0.01 µM [4]	inhibition at 0.5 µM [4]	further results
53 to 60%	80 to 100%	O=C1CCC(N2Cc3c(CN4CCN(Cc5ccc(-c6ccc(Cl)cc6)cc5)CC4)cccc3C2=S)C(=O)N1 (centres unmarked) [GT-08960, 3-(4-((4-((4'-chloro-[1,1'-biphenyl]-4-yl)methyl)piperazin-1-yl)methyl)-1-thioxoisoindolin-2-yl)piperidine-2,6-dione]																	inhibition at 0.01 µM [2]: 20 to 30%; inhibition at 0.5 µM [2]: 40 to 50%
80 to 100%	80 to 100%	O=C1CCC(N2Cc3cc(CN4CCN(c5ccnc(Cl)c5Br)CC4)ccc3C2=S)C(=O)N1 (centres unmarked) [GT-09240, 3-(5-((4-(3-bromo-2-chloropyridin-4-yl)piperazin-1-yl)methyl)-1-thioxoisoindolin-2-yl)piperidine-2,6-dione]	B (80%< substrate protein remaining %≤ 100%)	B (80%< substrate protein remaining %≤ 100%)	A (0% ≤ substrate protein remaining % ≤ 80%)	B (80%< substrate protein remaining %≤ 100%)	B (80%< substrate protein remaining %≤ 100%)	A (0% ≤ substrate protein remaining % ≤ 80%)											inhibition at 0.01 µM [2]: 50 to 60%; inhibition at 0.5 µM [2]: 30 to 40%
53 to 60%	80 to 100%	O=C1CCC(N2Cc3cc(CN4CCN(c5ccc(F)cc5)CC4)ccc3C2=S)C(=O)N1 (centres unmarked) [GT-08240, 3-(5-((4-(4-fluorophenyl)piperazin-1-yl)methyl)-1-thioxoisoindolin-2-yl)piperidine-2,6-dione]							B (80%< substrate protein remaining %≤ 100%)	B (80%< substrate protein remaining %≤ 100%)	B (80%< substrate protein remaining %≤ 100%)	B (80%< substrate protein remaining %≤ 100%)	B (80%< substrate protein remaining %≤ 100%)	A (0% ≤ substrate protein remaining % ≤ 80%)	50 to 60%	50 to 60%	0 to 5%	40 to 60%	
53 to 60%	80 to 100%	O=C1CCC(N2Cc3cc(CN4CCN(c5c[nH]c6ncccc56)CC4)ccc3C2=S)C(=O)N1 (centres unmarked) [GT-09261, 3-(5-((4-(1H-pyrrolo[2,3-b]pyridin-3-yl)piperazin-1-yl)methyl)-1-thioxoisoindolin-2-yl)piperidine-2,6-dione]	B (80%< substrate protein remaining %≤ 100%)	B (80%< substrate protein remaining %≤ 100%)	B (80%< substrate protein remaining %≤ 100%)	B (80%< substrate protein remaining %≤ 100%)	B (80%< substrate protein remaining %≤ 100%)	A (0% ≤ substrate protein remaining % ≤ 80%)							40 to 50%	40 to 50%	40 to 60%	40 to 60%	
60 to 80%	80 to 100%	O=C1CCC(N2Cc3cc(CN4CCN(c5ccc(Cl)cn5)CC4)ccc3C2=S)C(=O)N1 (centres unmarked) [GT-09217, 3-(5-((4-(5-chloropyridin-2-yl)piperazin-1-yl)methyl)-1-thioxoisoindolin-2-yl)piperidine-2,6-dione]							B (80%< substrate protein remaining %≤ 100%)	B (80%< substrate protein remaining %≤ 100%)	B (80%< substrate protein remaining %≤ 100%)	B (80%< substrate protein remaining %≤ 100%)	B (80%< substrate protein remaining %≤ 100%)	A (0% ≤ substrate protein remaining % ≤ 80%)	30 to 40%	60 to 70%	40 to 60%	80 to 100%	
53 to 60%	80 to 100%	O=C1CCC(N2Cc3cc(CN4CCC(c5ccccc5F)CC4)ccc3C2=S)C(=O)N1 (centres unmarked) [GT-08620, 3-(5-((4-(2-fluorophenyl)piperidin-1-yl)methyl)-1-thioxoisoindolin-2-yl)piperidine-2,6-dione]							B (80%< substrate protein remaining %≤ 100%)	B (80%< substrate protein remaining %≤ 100%)	B (80%< substrate protein remaining %≤ 100%)	A (0% ≤ substrate protein remaining % ≤ 80%)	B (80%< substrate protein remaining %≤ 100%)	A (0% ≤ substrate protein remaining % ≤ 80%)	40 to 50%	70 to 80%	30 to 40%	60 to 80%	
80 to 100%	80 to 100%	O=C1CCC(N2Cc3cc(CN4CCN(c5c(Cl)cncc5Br)CC4)ccc3C2=S)C(=O)N1 (centres unmarked) [GT-09264, 3-(5-((4-(3-bromo-5-chloropyridin-4-yl)piperazin-1-yl)methyl)-1-thioxoisoindolin-2-yl)piperidine-2,6-dione]	B (80%< substrate protein remaining %≤ 100%)	B (80%< substrate protein remaining %≤ 100%)	B (80%< substrate protein remaining %≤ 100%)	B (80%< substrate protein remaining %≤ 100%)	B (80%< substrate protein remaining %≤ 100%)	A (0% ≤ substrate protein remaining % ≤ 80%)							30 to 40%	40 to 50%	30 to 40%	40 to 60%	
40 to 53%	80 to 100%	Cc1ccsc1C1CCN(Cc2ccc3c(c2)CN(C2CCC(=O)NC2=O)C3=S)CC1 (centres unmarked) [GT-08323, 3-(5-((4-(3-methylthiophen-2-yl)piperidin-1-yl)methyl)-1-thioxoisoindolin-2-yl)piperidine-2,6-dione]	A (0% ≤ substrate protein remaining % ≤ 80%)	B (80%< substrate protein remaining %≤ 100%)	B (80%< substrate protein remaining %≤ 100%)	B (80%< substrate protein remaining %≤ 100%)	B (80%< substrate protein remaining %≤ 100%)	A (0% ≤ substrate protein remaining % ≤ 80%)							0 to 5%		-5 to 0%	40 to 60%	Inhibition Rate at 500 nM (%) ([3]; MM.1S, 500 nM, 96 hours): la7
53 to 60%	80 to 100%	O=C1CCC(N2Cc3cc(CN4CCN(c5ccc(Br)cc5)CC4)ccc3C2=S)C(=O)N1 (centres unmarked) [GT-08600, 3-(5-((4-(4-bromophenyl)piperazin-1-yl)methyl)-1-thioxoisoindolin-2-yl)piperidine-2,6-dione]							B (80%< substrate protein remaining %≤ 100%)	B (80%< substrate protein remaining %≤ 100%)	B (80%< substrate protein remaining %≤ 100%)	B (80%< substrate protein remaining %≤ 100%)	B (80%< substrate protein remaining %≤ 100%)	A (0% ≤ substrate protein remaining % ≤ 80%)	30 to 40%	60 to 70%	40 to 60%	80 to 100%	
60 to 80%	80 to 100%	O=C1CCC(N2Cc3cc(CN4CCN(c5cccc(Cl)n5)CC4)ccc3C2=S)C(=O)N1 (centres unmarked) [GT-09215, 3-(5-((4-(6-chloropyridin-2-yl)piperazin-1-yl)methyl)-1-thioxoisoindolin-2-yl)piperidine-2,6-dione]							B (80%< substrate protein remaining %≤ 100%)	B (80%< substrate protein remaining %≤ 100%)	B (80%< substrate protein remaining %≤ 100%)	B (80%< substrate protein remaining %≤ 100%)	B (80%< substrate protein remaining %≤ 100%)	A (0% ≤ substrate protein remaining % ≤ 80%)	30 to 40%	50 to 60%	40 to 60%	80 to 100%	
